Experimental data as given in US20060100140A1, “Combination of a) n-{5-[4-(4-methyl-piperazino-methyl)-benzoylamido]2-methylphenyl}-4- (3-pyridyl)-2-pyrimidine-amine and b) a histone deacetylase inhibitor for the treatment of leukemia” (priority 2002, published 2006).

What was measured:
K562 cells = experiment: Apoptosis by morphological analysis of Wright Giemsa-stained cytospin preparations; format: cell-based, human; settings: K562; for effect of caspase inhibitor on Compound I/SAHA-induced apoptosis: Compound I + SAHA with 25 μM inhibitor
Description: (§1) Experimental Format: Logarithmically growing cells are placed in sterile plastic T-flasks (Corning, Corning, N.Y.) to which are added the designated drugs and the flasks replaced in the incubator for intervals. At the end of the incubation period, cells are transferred to sterile centrifuge tubes, pelleted by centrifugation at 400×g for 10 min at room temperature, and prepared for analysis as described below.
(§2) Assessment of Apoptosis: After drug exposures, cytocentrifuge preparations are stained with Wright-Giemsa and viewed by light microscopy to evaluate the extent of apoptosis (i.e., cell shrinkage, nuclear condensation, formation of apoptotic bodies, etc.) as described previously (Yu et al., Nat. Rev. Cancer 1:294-202). For these studies, the percentage of apoptotic cells is determined by evaluating ≧500 cells/condition in triplicate. To confirm the results of morphological analysis, Annexin V/PI staining is used. Annexin V/PI (BD PharMingen, San Diego, Calif.) analysis of cell death is carried out as per the manufacturer's instructions. In studies involving TNF and TNF soluble receptor, both compound are combined and maintained at room temperature 20 min prior to use. For these experiments 1-2×10^5 cells per condition are harvested. Analysis is carried out using a Becton-Dickinson FACScan cytofluorometer (Mansfield, Mass.). To further confirm the morphology results, TUNEL staining is used. For TUNEL staining, cytocentrifuge preparations are obtained and fixed with 4% formaldehyde. The slides are treated with acetic acid/ethanol (1:2), stained with terminal transferase reaction mixture containing 1× terminal transferase reaction buffer (0.25 units/μl terminal transferase, 2.5 mM CoCl2, and 2 pmol fluorescein-12-dUTM; Boehringer Mannheim, Indianapolis, Ind.), and visualized using fluorescence microscopy.

LAMA 84 cells = experiment: Apoptosis by cytospin slides; format: cell-based, human; settings: Table 6; LAMA 84; 24 hr; sodium butyrate (SB; 1 or 2 mM); Compound I concentration not given
Description: as §1, §2

Row | Compound | effect of caspase inhibitor on Compound I/SAHA-induced apoptosis (K562 cells) | Compound I + SB % of apoptotic cells (LAMA 84 cells) [%] | Compound I + SB % of apoptotic cells (K562 cells; Table 6, 24 hr, sodium butyrate (SB; 1 or 2 mM), Compound I concentration not given) [%]
1 | COC(=O)CC(NC(=O)OC(C)(C)C)C(=O)CF (stereo not shown) [BOC-fmk] | markedly inhibited apoptosis | – | –
2 | CCCC(=O)[O-].[Na+] [SB, sodium butyrate] | – | 6.4 ± 2.8 | 5.1 ± 2.2
3 | IETD-fmk | minimally effective | – | –
